Measurements: US20070021434A1, “NON-NUCLEOSIDE ANTI-HEPACIVIRUS AGENTS AND USES THEREOF” (Migenix Inc., priority 2005, published 2007)

Target: HCV RdRp (NS5B) (UniProt P26663)
Assay type: biochemical, hepatitis C virus

Chain of HCV RdRp (NS5B) (P26663 whole entry, looked up): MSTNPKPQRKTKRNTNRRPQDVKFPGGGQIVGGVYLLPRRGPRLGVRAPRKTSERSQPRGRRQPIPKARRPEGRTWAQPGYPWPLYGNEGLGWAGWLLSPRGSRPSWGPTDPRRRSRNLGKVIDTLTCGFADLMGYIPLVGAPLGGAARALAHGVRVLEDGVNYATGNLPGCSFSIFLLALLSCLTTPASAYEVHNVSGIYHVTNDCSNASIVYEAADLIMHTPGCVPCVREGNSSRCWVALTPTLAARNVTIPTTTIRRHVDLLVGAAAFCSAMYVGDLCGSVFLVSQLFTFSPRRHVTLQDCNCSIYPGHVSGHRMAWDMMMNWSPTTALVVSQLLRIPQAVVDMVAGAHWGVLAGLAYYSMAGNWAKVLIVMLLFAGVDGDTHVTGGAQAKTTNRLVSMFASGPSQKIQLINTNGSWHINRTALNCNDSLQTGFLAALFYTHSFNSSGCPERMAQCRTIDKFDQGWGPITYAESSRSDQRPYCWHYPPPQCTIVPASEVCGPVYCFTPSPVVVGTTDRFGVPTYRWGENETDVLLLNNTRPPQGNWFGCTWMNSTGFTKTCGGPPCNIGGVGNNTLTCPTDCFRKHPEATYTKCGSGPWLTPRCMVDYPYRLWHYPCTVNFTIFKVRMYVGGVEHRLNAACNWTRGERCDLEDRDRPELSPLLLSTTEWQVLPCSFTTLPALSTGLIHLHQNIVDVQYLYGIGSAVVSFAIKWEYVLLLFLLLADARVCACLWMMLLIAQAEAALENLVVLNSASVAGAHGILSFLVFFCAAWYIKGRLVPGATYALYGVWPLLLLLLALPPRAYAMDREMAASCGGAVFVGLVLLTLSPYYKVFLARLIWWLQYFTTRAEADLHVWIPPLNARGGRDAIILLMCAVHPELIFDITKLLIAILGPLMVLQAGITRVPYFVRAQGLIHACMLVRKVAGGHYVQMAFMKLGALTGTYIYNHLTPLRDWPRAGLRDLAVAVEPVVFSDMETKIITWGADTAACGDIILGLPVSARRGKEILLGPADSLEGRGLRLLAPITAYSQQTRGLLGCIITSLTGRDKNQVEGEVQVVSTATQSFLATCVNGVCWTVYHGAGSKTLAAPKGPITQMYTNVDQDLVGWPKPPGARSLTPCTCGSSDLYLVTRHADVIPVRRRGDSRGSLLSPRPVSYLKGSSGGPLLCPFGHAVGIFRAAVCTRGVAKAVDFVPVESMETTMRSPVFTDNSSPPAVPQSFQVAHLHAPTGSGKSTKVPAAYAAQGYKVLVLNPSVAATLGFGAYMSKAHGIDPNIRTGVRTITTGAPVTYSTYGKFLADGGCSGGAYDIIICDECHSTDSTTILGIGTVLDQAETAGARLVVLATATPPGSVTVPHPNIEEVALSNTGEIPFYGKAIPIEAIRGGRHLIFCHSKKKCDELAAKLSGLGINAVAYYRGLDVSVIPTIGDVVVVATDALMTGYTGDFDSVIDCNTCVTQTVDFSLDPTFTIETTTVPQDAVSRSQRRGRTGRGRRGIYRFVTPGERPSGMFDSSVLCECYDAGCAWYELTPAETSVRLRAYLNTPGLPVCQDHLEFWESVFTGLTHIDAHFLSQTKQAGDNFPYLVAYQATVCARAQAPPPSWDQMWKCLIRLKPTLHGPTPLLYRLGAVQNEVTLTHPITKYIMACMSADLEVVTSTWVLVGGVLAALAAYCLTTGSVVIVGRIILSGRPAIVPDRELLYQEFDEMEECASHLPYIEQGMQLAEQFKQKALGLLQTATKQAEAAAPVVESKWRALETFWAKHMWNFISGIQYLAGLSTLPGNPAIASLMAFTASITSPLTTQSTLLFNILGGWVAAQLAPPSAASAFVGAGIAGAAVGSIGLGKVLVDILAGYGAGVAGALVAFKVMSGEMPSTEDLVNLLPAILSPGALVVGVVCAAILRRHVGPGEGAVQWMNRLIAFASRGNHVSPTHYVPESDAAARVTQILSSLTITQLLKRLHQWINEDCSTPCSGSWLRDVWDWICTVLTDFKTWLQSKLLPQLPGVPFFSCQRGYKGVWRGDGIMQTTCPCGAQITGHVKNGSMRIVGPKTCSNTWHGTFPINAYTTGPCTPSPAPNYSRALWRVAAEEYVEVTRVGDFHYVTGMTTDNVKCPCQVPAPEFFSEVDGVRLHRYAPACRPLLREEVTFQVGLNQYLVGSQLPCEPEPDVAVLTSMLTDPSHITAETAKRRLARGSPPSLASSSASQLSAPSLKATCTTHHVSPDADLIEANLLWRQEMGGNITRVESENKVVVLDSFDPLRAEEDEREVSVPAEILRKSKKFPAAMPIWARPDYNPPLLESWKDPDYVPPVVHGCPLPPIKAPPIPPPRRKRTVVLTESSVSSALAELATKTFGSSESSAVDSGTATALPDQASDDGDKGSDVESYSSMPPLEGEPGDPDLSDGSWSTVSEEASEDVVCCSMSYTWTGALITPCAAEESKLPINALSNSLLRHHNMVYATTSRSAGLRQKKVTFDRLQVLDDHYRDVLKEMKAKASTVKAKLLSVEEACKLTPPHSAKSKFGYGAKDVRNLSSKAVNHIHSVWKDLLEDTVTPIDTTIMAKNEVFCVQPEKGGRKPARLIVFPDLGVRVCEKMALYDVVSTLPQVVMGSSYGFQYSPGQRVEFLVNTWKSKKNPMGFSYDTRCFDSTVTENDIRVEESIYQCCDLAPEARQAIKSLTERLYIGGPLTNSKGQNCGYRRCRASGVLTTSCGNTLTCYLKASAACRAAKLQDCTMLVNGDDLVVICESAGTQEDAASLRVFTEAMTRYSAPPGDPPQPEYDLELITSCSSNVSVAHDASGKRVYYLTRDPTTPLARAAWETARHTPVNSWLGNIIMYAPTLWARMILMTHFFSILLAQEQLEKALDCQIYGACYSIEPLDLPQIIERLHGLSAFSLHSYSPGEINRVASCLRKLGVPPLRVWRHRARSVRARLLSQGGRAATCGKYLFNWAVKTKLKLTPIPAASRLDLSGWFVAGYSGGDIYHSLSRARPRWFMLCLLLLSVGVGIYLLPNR

Structure (SMILES) | IC50
Cc1ccc(N(C)C(=O)C(CCCCN)NC(=O)OCC2c3ccccc3-c3ccccc32)cc1 [Compound 92, (S)-[5-AMINO-1-(METHYL-P-TOLYL-CARBAMOYL)-PENTYL]-CARBAMIC ACID 9H-FLUOREN-9-YLMETHYL ESTER] | > 50 µM
Cc1ccc(NC(=O)[C@@H](CCCN)NC(=O)Nc2ccc3c(c2)Cc2ccccc2-3)cc1 [Compound 193, (R)-5-AMINO-2-[3-(9H-FLUOREN-2-YL)-UREIDO]-PENTANOIC ACID P-TOLYLAMIDE] | < 10 µM
O=CNCCCC[C@H](NC(=O)OCC1c2ccccc2-c2ccccc21)C(=O)Nc1ccc(Cl)c(Cl)c1 [Compound 217, (S)-[1-(3,4-DICHLORO-PHENYLCARBAMOYL)-5-FORMYLAMINO-PENTYL]-CARBAMIC ACID 9H-FLUOREN-9-YLMETHYL ESTER] | 10 to 50 µM
Cc1ccccc1NC(=O)C(CCCCN)NC(=O)OCC1c2ccccc2-c2ccccc21 [Compound 45, (S)-(5-AMINO-1-O-TOLYLCARBAMOYL-PENTYL)-CARBAMIC ACID 9H-FLUOREN-9-YLMETHYL ESTER] | > 50 µM
CC(=O)NCCCCC(NC(=O)OCC1c2ccccc2-c2ccccc21)C(=O)Nc1ccc(C)cc1 [Compound 181, (S)-(5-ACETYLAMINO-1-P-TOLYLCARBAMOYL-PENTYL)-CARBAMIC ACID 9H-FLUOREN-9-YLMETHYL ESTER] | > 50 µM
Cc1ccc(NC(=O)C(CCCCN)NC(=O)Nc2ccc(C(F)(F)F)cc2)cc1 [Compound 42, (S)-6-AMINO-2-[3-(4-TRIFLUOROMETHYL-PHENYL)-UREIDO]-HEXANOIC ACID P-TOLYLAMIDE] | 10 to 50 µM
NCCCC[C@H](NC(=O)OCC1c2ccccc2-c2ccccc21)C(=O)Nc1cc(-c2ccccc2)n[nH]1 [Compound 267, (S)-[5-AMINO-1-(5-PHENYL-2H-PYRAZOL-3-YLCARBAMOYL)-PENTYL]-CARBAMIC ACID 9H-FLUOREN-9-YLMETHYL ESTER] | 10 to 50 µM
COC(=O)[C@H](Cc1c[nH]c2ccccc12)NC(=O)C(CCCCN)NC(=O)OCC1c2ccccc2-c2ccccc21 (stereo partly drawn) [Compound 58, (S)-2-[6-AMINO-2-((9H-FLUOREN-9-YLMETHOXYCARBONYL)AMINO)-HEXANOYL-(R)-AMINO]-3-(1H-INDOL-3-YL)-PROPIONIC ACID METHYL ESTER] | > 50 µM
Cc1ccc(NC(=O)C(CC(=O)O)NC(=O)OCC2c3ccccc3-c3ccccc32)cc1 [Compound 371, (R)-3-(9H-FLUOREN-9-YLMETHOXYCARBONYLAMINO)-NR-P-TOLYL-[…]] | > 50 µM
Cc1ccc(NC(=O)[C@H](CCCCN)NC(=O)Nc2ccc(OCc3ccc(Cl)cc3)cc2)cc1 [Compound 273, (S)-6-AMINO-2-{3-[4-(4-CHLORO-BENZYLOXY)-PHENYL]-UREIDO}-HEXANOIC ACID P-TOLYLAMIDE] | < 10 µM
NCCC[C@@H](NC(=O)Nc1ccc2c(c1)Cc1ccccc1-2)C(=O)Nc1ccc(C2CCCCC2)cc1 [Compound 203, (R)-5-AMINO-2-[3-(9H-FLUOREN-2-YL)-UREIDO]-PENTANOIC ACID (4-CYCLOHEXYL-PHENYL)-AMIDE] | < 10 µM
CCOC(=O)C=Cc1ccc(NC(=O)[C@H](CCCCN)NC(=O)OCC2c3ccccc3-c3ccccc32)cc1 [Compound 59, (S)-3-{4-[6-AMINO-2-((9H-FLUOREN-9-YLMETHOXYCARBONYL)AMINO)-HEXANOYLAMINO]PHENYL}-ACRYLIC ACID ETHYL ESTER] | 10 to 50 µM
O=C(CC1CNCCN1C(=O)OCC1c2ccccc2-c2ccccc21)Nc1ccc(C2CCCCC2)cc1 (centres unmarked) [Compound 155, 2-[(4-CYCLOHEXYL-PHENYLCARBAMOYL)-METHYL]-PIPERAZINE-1-CARBOXYLIC ACID 9H-FLUOREN-9-YLMETHYL ESTER] | 10 to 50 µM
Cc1ccc(NC(=O)C(CCCCN)NC(=O)Nc2ccc(N3CCCCC3)cc2)cc1 [Compound 269, (S)-6-AMINO-2-[3-(4-PIPERIDIN-1-YL-PHENYL)-UREIDO]-HEXANOIC ACID P-TOLYLAMIDE] | > 50 µM
NCCCC[C@H](NC(=O)Nc1ccc(OCc2ccccc2)cc1)C(=O)NCCO [Compound 260, (S)-6-AMINO-2-[3-(4-BENZYLOXY-PHENYL)-UREIDO]-HEXANOIC ACID (2-HYDROXY-ETHYL)-AMIDE] | > 50 µM
Cc1ccc(NC(=O)C(CCCCN)NC(=O)Cc2ccc(-c3ccccc3)cc2)cc1 [Compound 50, (S)-6-AMINO-2-(2-BIPHENYL-4-YL-ACETYLAMINO)-HEXANOIC ACID P-TOLYLAMIDE] | > 50 µM
Cc1ccc(NC(=O)[C@H](CCCCN)NC(=O)CNCc2cccc(F)c2)cc1 [Compound 345, (S)-6-AMINO-2-[2-(3-FLUORO-BENZYLAMINO)-ACETYLAMINO]-HEXANOIC ACID P-TOLYLAMIDE] | > 50 µM
NCCCC[C@H](NC(=O)NCc1ccccc1)C(=O)Nc1ccc(CN(C(=O)c2ccco2)C2CCCCC2)cc1 [Compound 153, (S)-FURAN-2-CARBOXYLIC ACID {4-[6-AMINO-2-(3-BENZYL-UREIDO)-HEXANOYLAMINO]-BENZYL}-CYCLOHEXYL-AMIDE] | > 50 µM
Cc1ccc(NC(=O)C(CCCCN)NS(=O)(=O)c2cc(S(=O)(=O)c3ccccc3)cs2)cc1 [Compound 388, (S)-6-AMINO-2-(4-BENZENESULFONYL-THIOPHENE-2-SULFONYLAMINO)-HEXANOIC ACID P-TOLYLAMIDE] | > 50 µM

Structure (SMILES) | IC50
COc1cc2ccccc2cc1C(=O)NC(CCCCN)C(=O)Nc1ccc(C)cc1 [Compound 65, (S)-3-METHOXY-NAPHTHALENE-2-CARBOXYLIC ACID (5-AMINO-1-P-TOLYLCARBAMOYL-PENTYL)-AMIDE] | > 50 µM
NCCCC[C@H](NC(=O)Cn1cnc2c(NC(=O)c3ccccc3)ncnc21)C(=O)N(Cc1ccccc1)C1CCCCC1 [Compound 88, (S)-N-(9-{[5-AMINO-1-(BENZYL-CYCLOHEXYL-CARBAMOYL)-PENTYLCARBAMOYL]-METHYL}-9H-PURIN-6-YL)-BENZAMIDE] | > 50 µM
Cc1ccc(NC(=O)C(CCCCN)NC(=O)COc2cccc(C(F)(F)F)c2)cc1 [Compound 332, (S)-6-AMINO-2-[2-(3-TRIFLUOROMETHYL-PHENOXY)-ACETYLAMINO]-HEXANOIC ACID P-TOLYLAMIDE] | > 50 µM
CC(C)(C)c1ccc(NC(=O)[C@H](Cc2ccc(CN)cc2)NC(=O)NCc2ccc(Cl)c(Cl)c2)cc1 [Compound 149, (S)-3-(4-AMINOMETHYL-PHENYL)-N-(4-TERT-BUTYL-PHENYL)-2-[3-(3,4-DICHLORO-BENZYL)-UREIDO]-PROPIONAMIDE] | < 10 µM
NCCCC[C@H](NC(=O)NCc1ccc(Cl)c(Cl)c1)C(=O)Nc1ccc(CN(C(=O)c2ccco2)C2CCCCC2)cc1 [Compound 154, (S)-FURAN-2-CARBOXYLIC ACID (4-{6-AMINO-2-[3-(3,4-DICHLORO-BENZYL)-UREIDO]-HEXANOYLAMINO}-BENZYL)-CYCLOHEXYL-AMIDE] | 10 to 50 µM
Cc1ccc(NC(=O)[C@H](CCCCN)NC(=O)Nc2ccc(OCc3cccnc3)cc2)cc1 [Compound 261, (S)-6-AMINO-2-{3-[4-(PYRIDIN-3-YLMETHOXY)-PHENYL]-UREIDO}-HEXANOIC ACID P-TOLYLAMIDE] | > 50 µM
Cc1ccc(NC(=O)[C@H](CCCCN)NC(=O)Nc2ccc(OCc3ccncc3)cc2)cc1 [Compound 279, (S)-6-AMINO-2-{3-[4-(PYRIDIN-4-YLMETHOXY)-PHENYL]-UREIDO}-HEXANOIC ACID P-TOLYLAMIDE] | > 50 µM
NCCCCCCNC(=O)C(NC(=O)Nc1ccc(OCc2ccccc2)cc1)c1ccccc1 [Compound 320, (R)-NR-(6-AMINO-HEXYL)-2-[3-(4-BENZYLOXY-PHENYL)-UREIDO]-2-PHENYL-ACETAMIDE] | < 10 µM
Cc1ccc(NC(=O)C(CCN)NC(=O)OCC2c3ccccc3-c3ccccc32)cc1 [Compound 108, (S)-(3-AMINO-1-P-TOLYLCARBAMOYL-PROPYL)-CARBAMIC ACID 9H-FLUOREN-9-YLMETHYL ESTER] | > 50 µM
NCCCC[C@H](NC(=O)OCC1c2ccccc2-c2ccccc21)C(=O)Nc1ccc2c(c1)CCC2 [Compound 81, (S)-[5-AMINO-1-(INDAN-5-YLCARBAMOYL)-PENTYL]-CARBAMIC ACID 9H-FLUOREN-9-YLMETHYL ESTER] | 10 to 50 µM
Cc1ccc(NC(=O)CN(CCCCN)C(=O)OCC2c3ccccc3-c3ccccc32)cc1 [Compound 293, (4-AMINO-BUTYL)-(P-TOLYLCARBAMOYL-METHYL)-CARBAMIC ACID 9H-FLUOREN-9-YLMETHYL ESTER] | < 10 µM
Cc1ccc(NC(=O)[C@H](CCCCN)NC(=O)COc2ccc(Oc3ccccc3)cc2)cc1 [Compound 333, (S)-6-AMINO-2-[2-(4-PHENOXY-PHENOXY)-ACETYLAMINO]-HEXANOIC ACID P-TOLYLAMIDE] | > 50 µM
COc1cccc(NCC(=O)N[C@@H](CCCCN)C(=O)Nc2ccc(C)cc2)c1 [Compound 358, (S)-6-AMINO-2-[2-(3-METHOXY-PHENYLAMINO)-ACETYLAMINO]-HEXANOIC ACID P-TOLYLAMIDE] | 10 to 50 µM
Cc1ccc(NC(=O)C(Cc2c[nH]c3ccccc23)NC(=O)OCC2c3ccccc3-c3ccccc32)cc1 [Compound 379, (R)-[2-(1H-INDOL-3-YL)-1-P-TOLYLCARBAMOYL-ETHYL]-CARBAMIC ACID 9H-FLUOREN-9-YLMETHYL ESTER] | > 50 µM
Cc1ccc(NC(=O)[C@H](CCCCN)NC(=O)Nc2ccc(OCc3ccc(Cl)cc3Cl)cc2)cc1 [Compound 274, (S)-6-AMINO-2-{3-[4-(2,4-DICHLORO-BENZYLOXY)-PHENYL]-UREIDO}-HEXANOIC ACID P-TOLYLAMIDE] | < 10 µM
Cc1ccc(NC(=O)[C@H](CCCCN)NC(=O)Nc2ccc(F)cc2)cc1 [Compound 43, (S)-6-AMINO-2-[3-(4-FLUORO-PHENYL)-UREIDO]-HEXANOIC ACID P-TOLYLAMIDE] | > 50 µM
NCCC[C@@H](NC(=O)OCC1c2ccccc2-c2ccccc21)C(=O)Nc1ccc(CN(C(=O)c2ccco2)C2CCCCC2)cc1 [Compound 16, (R)-[4-AMINO-1-(4-{[CYCLOHEXYL-(FURAN-2-CARBONYL)-AMINO]-METHYL}-PHENYLCARBAMOYL)-BUTYL]-CARBAMIC ACID 9H-FLUOREN-9-YLMETHYL ESTER] | < 10 µM
Cc1ccc(NC(=O)[C@H](CCCCN)NC(=O)CNCc2ccccc2F)cc1 [Compound 344, (S)-6-AMINO-2-[2-(2-FLUORO-BENZYLAMINO)-ACETYLAMINO]-HEXANOIC ACID P-TOLYLAMIDE] | > 50 µM
Cc1ccc(NC(=O)[C@H](CCCCN)NC(=O)Nc2ccc(OCc3ccc(F)cc3F)cc2)cc1 [Compound 285, (S)-6-AMINO-2-{3-[4-(2,4-DIFLUORO-BENZYLOXY)-PHENYL]-UREIDO}-HEXANOIC ACID P-TOLYLAMIDE] | 10 to 50 µM
